Measured values: ChEMBL document CHEMBL1128961 (Bioorg Med Chem Lett, 1996)

target: T1, Acetylcholinesterase (Bos taurus, UniProt P23795); assay: Dissociation constant for the inhibition of fetal bovine serum acetylcholinesterase was determined..
T1 sequence (P23795 whole entry): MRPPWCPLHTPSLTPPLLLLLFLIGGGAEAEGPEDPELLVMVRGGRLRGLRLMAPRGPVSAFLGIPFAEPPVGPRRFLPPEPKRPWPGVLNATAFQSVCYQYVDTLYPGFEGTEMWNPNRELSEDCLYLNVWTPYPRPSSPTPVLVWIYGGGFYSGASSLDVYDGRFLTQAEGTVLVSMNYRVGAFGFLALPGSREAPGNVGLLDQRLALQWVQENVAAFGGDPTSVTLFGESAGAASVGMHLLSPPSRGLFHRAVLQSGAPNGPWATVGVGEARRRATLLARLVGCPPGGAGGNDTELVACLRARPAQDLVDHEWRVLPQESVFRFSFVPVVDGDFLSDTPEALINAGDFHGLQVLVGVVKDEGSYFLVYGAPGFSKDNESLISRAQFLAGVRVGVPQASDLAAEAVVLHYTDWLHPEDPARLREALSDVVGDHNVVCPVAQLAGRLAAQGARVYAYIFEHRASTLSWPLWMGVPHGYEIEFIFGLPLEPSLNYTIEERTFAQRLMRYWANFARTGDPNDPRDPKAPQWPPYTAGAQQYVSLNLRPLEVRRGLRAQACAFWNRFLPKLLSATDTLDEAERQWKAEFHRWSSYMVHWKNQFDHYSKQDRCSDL

| SMILES | Ki [µM] |
| --- | --- |
| C/C=C1\C2C=C(C)C[C@]1(N)c1ccc(O)nc1C2(C)C (mixture of isomers) | 0.0167 |
| C/C=C1\[C@H]2C=C(C)C[C@]1(N)c1ccc(=O)[nH]c1C2 (stereo in doubt; form 1) [HUPERZINE A] | 0.0236 |
| C/C=C1\[C@H]2C=C(C)C[C@]1(N)c1ccc(=O)[nH]c1C2 (stereo in doubt; form 2) [HUPERZINE A] | 0.0059 |

target: T2, Acetylcholinesterase (Bos taurus) (UniProt P23795)
T2 sequence (whole entry): T1 sequence (P23795 whole entry)
Description: Kinetic constant for inhibition of fetal bovine serum acetylcholinesterase

| SMILES | k off [s⁻¹] |
| --- | --- |
| C/C=C1\C2C=C(C)C[C@]1(N)c1ccc(O)nc1C2(C)C (mixture of isomers) | 0.000217 |
| C/C=C1\[C@H]2C=C(C)C[C@]1(N)c1ccc(=O)[nH]c1C2 (stereo in doubt; form 1) | 0.000367 |
| C/C=C1\[C@H]2C=C(C)C[C@]1(N)c1ccc(=O)[nH]c1C2 (stereo in doubt; form 2) | 0.000334 |
